We go through 9 compounds from ChEMBL document CHEMBL1201862, “PubChem BioAssay data set” (2004).

Experiment in all cases: NCI tumour cell line growth inhibition, 48 h
For assay [1], the system named is ACHN.
Assay [2] deals with HCC 2998.
In assay [3] the test system is HCT-15.
Assay [4] deals with HOP-62.
In assay [5] the test system is HT-29.
The subject of assay [6] is K562.
The test system of assay [7] is KM12.
In assay [8] the test system is LOX IMVI.
The test system of assay [9] is MDA-MB-435.
Assay [10] deals with Malme-3M.
Assay [11] deals with OVCAR-4.
In assay [12] the test system is OVCAR-5.
Assay [13] deals with RXF 393.
Assay [14] deals with SF-268.
Assay [15] deals with SK-OV-3.
Assay [16] deals with TK-10.
For assay [17], the system named is U-251.
Assay [18] has as its system UO-31.
Assay [19] deals with MCF7.

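96-well plates; 48 h exposure; 5 concentrations. Endpoints by linear interpolation between flanking doses. Not reached: highest tested concentration assigned. GI50 = concentration required for 50% inhibition of growth.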 Active and inactive are the calls of the source. No stated cut-off is given here; in the data, active = GI50 up to about 1.1 µM and inactive = higher. Some results are limits rather than exact numbers.

As to `NC(=O)/N=C1\NCCC(=O)N1CCc1c[nH]c2ccccc12`, the GI50 in assay [1] is 21.5 µM (inactive); in assay [2], 19.4 µM (inactive); in assay [3], 20 µM; in assay [4] it was 19.4 µM (inactive); in [5], 17.1 µM (inactive); in assay [6], 12.4 µM (inactive). Moreover, the GI50 in [7] is 37.8 µM (inactive); in [8], 11 µM (inactive); in assay [9], 17.8 µM (inactive); in assay [10] it was 18.4 µM (inactive); in assay [11], 19 µM (inactive); in assay [12] it was 39.4 µM (inactive). In addition, the GI50 is 12.1 µM (inactive) in [13]; 13.8 µM (inactive) in assay [14]; 50.7 µM (inactive) in [15]; 17.5 µM (inactive) in assay [16]; 45.2 µM (inactive) in assay [17]; 15.9 µM (inactive) in assay [18].
Turning to `C=CCCC1CCCCC/C1=N\N(C)C` (stereo unspecified), the GI50 in [1] was > 100 µM (inactive); in [3], over 100 µM; in [4], > 100 µM (inactive); in assay [5], > 100 µM (inactive); in [6], > 100 µM (inactive); in [7], > 100 µM (inactive). The GI50 in assay [8], in assay [19], in [9], in assay [11], in assay [12] and in assay [14] was > 100 µM (inactive) in each case. In addition, the GI50 in assay [15], in [16], in assay [17] and in [18] was > 100 µM (inactive) in each case.
For `CCOC(=O)CN(Cc1ccccc1)Cc1c(C(=O)c2ccccc2)c2ccccc2n1C(=O)c1ccccc1`, the GI50 in assay [1] was > 100 µM (inactive); in assay [2], > 100 µM (inactive); in assay [3] it was over 100 µM; in [4] it was > 100 µM (inactive); in [5], > 100 µM (inactive); in assay [6], > 100 µM (inactive). Also, the GI50 is > 100 µM (inactive) in assay [7]; > 100 µM (inactive) in assay [8]; > 100 µM (inactive) in assay [10]; > 100 µM (inactive) in assay [11]; > 100 µM (inactive) in [12]; > 10 µM (inactive) in [13]. Also, the GI50 in [14], in assay [15], in assay [16], in assay [17] and in assay [18] was > 100 µM (inactive) throughout.
As for `CS/C(c1ccccc1)=[N+](\[O-])Cc1ccccc1`, the GI50 in assay [1] was > 100 µM (inactive); in [2] it was > 100 µM (inactive); in assay [3], 16.7 µM; in [4], > 100 µM (inactive); in [5], 50.7 µM (inactive); in assay [6], > 100 µM (inactive). Further, the GI50 in [7] was > 100 µM (inactive); in [8], 16.4 µM (inactive); in assay [10], > 100 µM (inactive); in assay [11] it was > 100 µM (inactive); in assay [12], > 100 µM (inactive); in [13] it was > 100 µM (inactive). For the same compound, the GI50 in [14], in [15], in assay [16], in assay [17] and in assay [18] was > 100 µM (inactive) each time.
`NC1=NC(=O)C2(NN1)c1ccccc1-c1ccccc12`: the GI50 was 6.17 µM (inactive) in assay [1]; > 10 µM (inactive) in assay [2]; over 10 µM in [3]; > 10 µM (inactive) in assay [4]; 9.82 µM (inactive) in assay [6]; > 10 µM (inactive) in [7]. Further, the GI50 was > 10 µM (inactive) in assay [8]; 3.26 µM (inactive) in assay [19]; > 10 µM (inactive) in [10]; > 10 µM (inactive) in [12]; > 10 µM (inactive) in assay [13]; > 10 µM (inactive) in assay [14]. Also, the GI50 in assay [15] is > 10 µM (inactive); in [16], > 10 µM (inactive); in assay [17] it was 7.62 µM (inactive); in assay [18], > 10 µM (inactive).
For the compound `COc1cccc(NC(=O)C(C)(C)C)c1SSc1c(NC(=O)C(C)(C)C)cccc1OC`, the GI50 in [1] is 33.5 µM (inactive); in assay [2], > 69.3 µM (inactive); in assay [3], 20 µM; in [4], > 100 µM (inactive); in assay [5] it was 27.3 µM (inactive); in assay [6], 22.9 µM (inactive). For the same compound, the GI50 is 26.9 µM (inactive) in assay [7]; 15.4 µM (inactive) in [8]; 33.7 µM (inactive) in assay [10]; 22.8 µM (inactive) in assay [11]; 26.7 µM (inactive) in [12]; 20.3 µM (inactive) in [13]. Besides, the GI50 in assay [14] was 18.1 µM (inactive); in assay [15], > 83.4 µM (inactive); in [16], > 100 µM (inactive); in [17] it was 17.3 µM (inactive); in [18] it was 31.5 µM (inactive).
As for `COc1ccc([C@H]2[C@@H]3CCc4ccccc4C3=NN2C(N)=S)cc1OC`, the GI50 in assay [1] is 32.7 µM (inactive); in assay [2] it was > 100 µM (inactive); in assay [3] it was 40.9 µM; in assay [4] it was 97.7 µM (inactive); in assay [5], 40 µM (inactive); in [6] it was 22.4 µM (inactive). For the same compound, the GI50 is 47.9 µM (inactive) in [7]; 32.6 µM (inactive) in assay [8]; 85.3 µM (inactive) in assay [10]; 41.4 µM (inactive) in [11]; > 100 µM (inactive) in assay [12]; 39.7 µM (inactive) in assay [13]. For the same compound, the GI50 was 85.9 µM (inactive) in assay [14]; > 100 µM (inactive) in assay [15]; > 100 µM (inactive) in [16]; 60.3 µM (inactive) in assay [17]; 36.1 µM (inactive) in assay [18].
`CSC1=N/C(=C\c2cccs2)C(=O)N1CN1CCCCC1`: the GI50 in assay [1] was 28 µM (inactive); in assay [3] it was 37.2 µM; in [4], > 100 µM (inactive); in assay [5], 25.1 µM (inactive); in [6], 27.1 µM (inactive); in assay [7], 50.2 µM (inactive). Moreover, the GI50 in [8] is 23.1 µM (inactive); in [19], 45.2 µM (inactive); in assay [9] it was > 100 µM (inactive); in [10] it was 28.3 µM (inactive); in [12] it was > 100 µM (inactive); in assay [14] it was 37.8 µM (inactive). The GI50 in assay [15] was > 100 µM (inactive); in [16] it was > 100 µM (inactive); in [17], 79.6 µM (inactive); in [18], 23.3 µM (inactive).
As for `CC(C)C(NCc1c2ccccc2[n+](C)c2ccccc12)C(=O)O` (stereo unspecified), the GI50 was 3.53 µM (inactive) in assay [1]; 14.8 µM (inactive) in assay [2]; 3.68 µM in assay [3]; 13.8 µM (inactive) in assay [4]; 2.89 µM (inactive) in [5]; 0.782 µM (active) in assay [6]. In addition, the GI50 is 4.91 µM (inactive) in [7]; 5.42 µM (inactive) in assay [8]; 6.62 µM (inactive) in assay [10]; 7.62 µM (inactive) in assay [11]; 18.9 µM (inactive) in [12]; 3.48 µM (inactive) in assay [13]. Also, the GI50 in [14] is 2.99 µM (inactive); in assay [15] it was 15.5 µM (inactive); in assay [16], 7.91 µM (inactive); in assay [17], 7.28 µM (inactive); in assay [18] it was 8.07 µM (inactive).
